According to US10479780B2, “Aminopyrazole derivatives” (Chugai Seiyaku Kabushiki Kaisha, priority 2015, dated 2019):
pIC50: −log10 of the molar value.

Experiments:
Assay type in all cases: biochemical
[1] = biological target: T1, human Yes1 enzyme (Homo sapiens, UniProt P07947); assay: Yes1 enzyme inhibitory activity (time-resolved fluorometry, biotinylated peptide phosphorylation); conditions: read-out: YES_IC50
T1 construct: made in house
In short: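 Inhibition was expressed against a compound-free control to give IC50, using TR-FRET read-out (Eu-cryptate anti-pTyr antibody, streptavidin-XL665).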

[2] = biological target: T2, human Src enzyme (Homo sapiens, UniProt P12931); assay: Src enzyme inhibitory activity (time-resolved fluorometry, biotinylated peptide phosphorylation); conditions: read-out: SRC_IC50
T2 construct: purchased Carna Biosciences, Inc. 08-173
In short: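 Compounds were tested for blocking tyrosine phosphorylation of a biotinylated peptide substrate by recombinant human Src. Phosphorylated product was quantified by time-resolved fluorometry using europium cryptate and XL665 conjugates, and IC50 was calculated against the compound-free control.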

[3] = biological target: T3, human Lck enzyme (Homo sapiens, UniProt P06239); assay: Lck enzyme inhibitory activity (time-resolved fluorometry, biotinylated peptide phosphorylation); conditions: read-out: LCK_IC50
T3 construct: purchased Carna Biosciences, Inc. 08-170
In short: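 Readout pairs a europium cryptate-labelled anti-phosphotyrosine antibody with XL665-streptavidin, measured by time-resolved fluorescence. IC50 derived from percent inhibition against untreated controls.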

T2 sequence (P12931 whole entry): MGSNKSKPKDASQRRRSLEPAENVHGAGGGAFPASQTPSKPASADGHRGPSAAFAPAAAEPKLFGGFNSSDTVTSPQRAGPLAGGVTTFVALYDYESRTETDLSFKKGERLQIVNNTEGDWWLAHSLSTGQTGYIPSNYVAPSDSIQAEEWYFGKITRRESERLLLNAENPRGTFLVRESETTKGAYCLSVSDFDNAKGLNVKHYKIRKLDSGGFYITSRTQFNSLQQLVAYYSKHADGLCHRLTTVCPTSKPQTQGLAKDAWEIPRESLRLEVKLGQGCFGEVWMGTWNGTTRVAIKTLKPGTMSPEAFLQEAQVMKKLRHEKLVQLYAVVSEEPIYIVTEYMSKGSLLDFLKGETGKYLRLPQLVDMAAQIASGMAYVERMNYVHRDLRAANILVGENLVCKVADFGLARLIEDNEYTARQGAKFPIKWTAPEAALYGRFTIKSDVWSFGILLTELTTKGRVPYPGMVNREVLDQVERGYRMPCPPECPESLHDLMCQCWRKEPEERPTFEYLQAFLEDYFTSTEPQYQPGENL
T1 sequence (P07947 whole entry): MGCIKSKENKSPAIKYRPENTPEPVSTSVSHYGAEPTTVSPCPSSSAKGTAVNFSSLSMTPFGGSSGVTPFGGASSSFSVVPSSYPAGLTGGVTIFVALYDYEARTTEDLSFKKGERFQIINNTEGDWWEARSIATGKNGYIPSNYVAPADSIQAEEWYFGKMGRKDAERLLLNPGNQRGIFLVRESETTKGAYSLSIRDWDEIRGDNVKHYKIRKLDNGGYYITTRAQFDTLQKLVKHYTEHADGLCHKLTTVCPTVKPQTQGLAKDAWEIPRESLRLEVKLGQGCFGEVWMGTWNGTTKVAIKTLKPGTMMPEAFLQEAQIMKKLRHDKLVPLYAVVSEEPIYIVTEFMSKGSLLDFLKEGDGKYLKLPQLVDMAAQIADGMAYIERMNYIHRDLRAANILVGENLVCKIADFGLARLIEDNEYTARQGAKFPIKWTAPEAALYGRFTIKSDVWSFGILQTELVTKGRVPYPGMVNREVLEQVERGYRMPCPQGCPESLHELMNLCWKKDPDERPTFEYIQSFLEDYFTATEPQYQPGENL
T3 sequence (P06239 whole entry): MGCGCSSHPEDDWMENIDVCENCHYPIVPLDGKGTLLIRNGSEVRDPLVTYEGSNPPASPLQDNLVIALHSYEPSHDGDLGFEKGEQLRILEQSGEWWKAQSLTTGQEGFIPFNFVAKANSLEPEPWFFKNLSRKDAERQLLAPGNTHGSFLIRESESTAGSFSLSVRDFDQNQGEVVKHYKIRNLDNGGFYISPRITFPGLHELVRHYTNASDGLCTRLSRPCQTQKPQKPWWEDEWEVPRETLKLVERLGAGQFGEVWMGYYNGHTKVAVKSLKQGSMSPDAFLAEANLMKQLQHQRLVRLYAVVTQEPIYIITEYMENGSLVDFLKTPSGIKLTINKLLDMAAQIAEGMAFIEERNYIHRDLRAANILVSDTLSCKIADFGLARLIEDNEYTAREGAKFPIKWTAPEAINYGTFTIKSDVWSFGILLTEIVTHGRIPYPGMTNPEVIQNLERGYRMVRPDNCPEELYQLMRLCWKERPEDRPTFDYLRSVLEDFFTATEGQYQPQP

pIC50 [1]	pIC50 [2]	pIC50 [3]	SMILES
9.00	6.46	7.77	Cc1cc(-n2ncc(C(=O)c3cc4cc(OC5CCN(C(C)C)CC5)c(N5C(=O)N[C@@H](C)C5=O)cc4[nH]3)c2N)ccc1Oc1ccccc1F [Example 5-1-287, (5S)-3-[2-[5-amino-1-[4-(2-fluorophenoxy)-3-methylphenyl]pyrazole-4-carbonyl]-5-(1-propan-2-ylpiperidin-4-yl)oxy-1H-indol-6-yl]-5-methylimidazolidine-2.4-dione]
8.72	7.28	7.77	Cc1cc(Oc2c(F)cccc2F)ncc1-n1ncc(C(=O)c2cc3cc(OC4CCN(C5CCCC5)CC4)c(-c4ccccc4Cl)cc3[nH]2)c1N [Example 5-1-288, [5-amino-1-[6-(2,6-difluorophenoxy)-4-methylpyridin-3-yl]pyrazol-4-yl]-[6-(2-chlorophenyl)-5-(1-cyclopentylpiperidin-4-yl)oxy-1H-indol-2-yl]methanone]
8.68	7.34	7.52	Cc1cc(Oc2c(F)cccc2F)ncc1-n1ncc(C(=O)c2cc3cc(OC4CCN(C5CS(=O)(=O)C5)CC4)c(-c4ccccc4Cl)cc3[nH]2)c1N [Example 5-1-290, [5-amino-1-[6-(2,6-difluorophenoxy)-4-methylpyridin-3-yl]pyrazol-4-yl]-[6-(2-chlorophenyl)-5-[1-(1,1-dioxothietan-3-yl)piperidin-4-yl]oxy-1H-indol-2-yl]methanone]
7.72	6.20	7.06	Cc1cc2cc(C(=O)c3cnn(-c4cnc(Oc5c(F)cccc5F)cc4C)c3N)[nH]c2cc1NS(=O)(=O)N1CCOC[C@H]1C [Example 5-1-292, (3R)-N-[2-[5-amino-1-[6-(2,6-difluorophenoxy)-4-methylpyridin-3-yl]pyrazole-4-carbonyl]-5-methyl-1H-indol-6-yl]-3-methylmorpholine-4-sulfonamide]
9.14	6.36	7.74	Cc1cc(-n2ncc(C(=O)c3cc4cc(OC5CCN(C(C)C)CC5)c(N5C(=O)N[C@@H](CO)C5=O)cc4[nH]3)c2N)ccc1Oc1ccccc1F [Example 5-1-293, (5S)-3-[2-[5-amino-1-[4-(2-fluorophenoxy)-3-methylphenyl]pyrazole-4-carbonyl]-5-(1-propan-2-ylpiperidin-4-yl)oxy-1H-indol-6-yl]-5-(hydroxymethyl)imidazolidine-2,4-dione]
8.66	6.02	6.96	Cc1cc(-n2ncc(C(=O)c3cc4cc(OC5CCN(C(C)C)CC5)c(N5C(=O)N[C@@H](Cc6ccccc6)C5=O)cc4[nH]3)c2N)ccc1Oc1ccccc1F [Example 5-1-294, (5S)-3-[2-[5-amino-1-[4-(2-fluorophenoxy)-3-methylphenyl]pyrazole-4-carbonyl]-5-(1-propan-2-ylpiperidin-4-yl)oxy-1H-indol-6-yl]-5-benzylimidazolidine-2,4-dione]
8.82	6.15	7.19	Cc1cc(-n2ncc(C(=O)c3cc4cc(OC5CCN(C(C)C)CC5)c(N5C(=O)N[C@@H](C(C)C)C5=O)cc4[nH]3)c2N)ccc1Oc1ccccc1F [Example 5-1-295, (5S)-3-[2-[5-amino-1-[4-(2-fluorophenoxy)-3-methylphenyl]pyrazole-4-carbonyl]-5-(1-propan-2-ylpiperidin-4-yl)oxy-1H-indol-6-yl]-5-propan-2-ylimidazolidine-2,4-dione]
8.23	6.82	7.34	Cc1cc(Oc2c(F)cccc2F)ncc1-n1ncc(C(=O)c2cc3cc(OCC(F)F)c(NS(=O)(=O)Cc4ccccc4)cc3[nH]2)c1N [Example 5-1-296, N-[2-[5-amino-1-[6-(2,6-difluorophenoxy)-4-methylpyridin-3-yl]pyrazole-4-carbonyl]-5-(2,2-difluoroethoxy)-1H-indol-6-yl]-1-phenylmethanesulfonamide]
8.07	6.24	7.34	Cc1cc(Oc2c(F)cccc2F)ncc1-n1ncc(C(=O)c2cc3cc(OCC(F)F)c(NS(=O)(=O)c4ccc(F)cc4)cc3[nH]2)c1N [Example 5-1-297, N-[2-[5-amino-1-[6-(2,6-difluorophenoxy)-4-methylpyridin-3-yl]pyrazole-4-carbonyl]-5-(2,2-difluoroethoxy)-1H-indol-6-yl]-4-fluorobenzenesulfonamide]
8.05	6.20	7.03	Cc1cc(Oc2c(F)cccc2F)ncc1-n1ncc(C(=O)c2cc3cc(OCC(F)F)c(NS(=O)(=O)c4ccc(Cl)cc4)cc3[nH]2)c1N [Example 5-1-298, N-[2-[5-amino-1-[6-(2,6-difluorophenoxy)-4-methylpyridin-3-yl]pyrazole-4-carbonyl]-5-(2,2-difluoroethoxy)-1H-indol-6-yl]-4-chlorobenzenesulfonamide]
8.01	6.21	6.92	COc1ccc(S(=O)(=O)Nc2cc3[nH]c(C(=O)c4cnn(-c5cnc(Oc6c(F)cccc6F)cc5C)c4N)cc3cc2OCC(F)F)cc1 [Example 5-1-299, N-[2-[5-amino-1-[6-(2,6-difluorophenoxy)-4-methylpyridin-3-yl]pyrazole-4-carbonyl]-5-(2,2-difluoroethoxy)-1H-indol-6-yl]-4-methoxybenzenesulfonamide]
8.02	6.14	6.85	Cc1ccc(S(=O)(=O)Nc2cc3[nH]c(C(=O)c4cnn(-c5cnc(Oc6c(F)cccc6F)cc5C)c4N)cc3cc2OCC(F)F)cc1 [Example 5-1-300, N-[2-[5-amino-1-[6-(2,6-difluorophenoxy)-4-methylpyridin-3-yl]pyrazole-4-carbonyl]-5-(2,2-difluoroethoxy)-1H-indol-6-yl]-4-methylbenzenesulfonamide]
8.19	6.21	6.77	COc1ccc(Cl)c(S(=O)(=O)Nc2cc3[nH]c(C(=O)c4cnn(-c5cnc(Oc6c(F)cccc6F)cc5C)c4N)cc3cc2OCC(F)F)c1 [Example 5-1-301, N-[2-[5-amino-1-[6-(2,6-difluorophenoxy)-4-methylpyridin-3-yl]pyrazole-4-carbonyl]-5-(2,2-difluoroethoxy)-1H-indol-6-yl]-2-chloro-5-methoxybenzenesulfonamide]
8.72	7.30	7.66	Cc1cc(Oc2ccccc2F)ccc1-n1ncc(C(=O)c2cc3cc(F)c(N4CC(C)(C)NS4(=O)=O)cc3[nH]2)c1N [Example 5-1-302, (5-amino-1-(4-(2-fluorophenoxy)-2-methylphenyl)-1H-pyrazol-4-yl)(6-(4,4-dimethyl-1,1-dioxido-1,2,5-thiadiazolidin-2-yl)-5-fluoro-1H-indol-2-yl)methanone]

SMILES	pIC50 [1]	pIC50 [2]	pIC50 [3]
Cc1cc2cc(C(=O)c3cnn(-c4cnc(Oc5c(F)cccc5F)cc4C)c3N)[nH]c2cc1NS(=O)(=O)N1C2CCC1COC2 [Example 5-1-291, N-[2-[5-amino-1-[6-(2,6-difluorophenoxy)-4-methylpyridin-3-yl]pyrazole-4-carbonyl]-5-methyl-1H-indol-6-yl]-3-oxa-8-azabicyclo[3.2.1] octane-8-sulfonamide]	8.00	6.38	6.89
